From patent publication US8741934B2, “Inhibitors of ion channels” (Pfizer Limited, priority 2007, dated 2014)

Biological target: T1, hSCN3A sodium channels (Homo sapiens, UniProt Q9NY46)
T1 construct: expressed in transfected cells
Assay: hSCN3A electrophysiology, Ionworks Quattro automated platform (Table C)
Type: cell-based
Details: for inhibition at 3 µM: read-out: SCN3A % INHIB HTS IWQ 3 μM; for inhibition at 10 µM: read-out: SCN3A % INHIB HTS IWQ 10 μM
Method in brief: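 HEK cells stably expressing hSCN3A were recorded in perforated-patch mode with 100 μg/ml amphotericin on Ionworks Quattro. The protocol used an inactivating step, a brief hyperpolarized partial recovery, then a depolarized test step. Inhibition was taken from current amplitude before versus after compound addition.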

T1 sequence (Q9NY46 whole entry): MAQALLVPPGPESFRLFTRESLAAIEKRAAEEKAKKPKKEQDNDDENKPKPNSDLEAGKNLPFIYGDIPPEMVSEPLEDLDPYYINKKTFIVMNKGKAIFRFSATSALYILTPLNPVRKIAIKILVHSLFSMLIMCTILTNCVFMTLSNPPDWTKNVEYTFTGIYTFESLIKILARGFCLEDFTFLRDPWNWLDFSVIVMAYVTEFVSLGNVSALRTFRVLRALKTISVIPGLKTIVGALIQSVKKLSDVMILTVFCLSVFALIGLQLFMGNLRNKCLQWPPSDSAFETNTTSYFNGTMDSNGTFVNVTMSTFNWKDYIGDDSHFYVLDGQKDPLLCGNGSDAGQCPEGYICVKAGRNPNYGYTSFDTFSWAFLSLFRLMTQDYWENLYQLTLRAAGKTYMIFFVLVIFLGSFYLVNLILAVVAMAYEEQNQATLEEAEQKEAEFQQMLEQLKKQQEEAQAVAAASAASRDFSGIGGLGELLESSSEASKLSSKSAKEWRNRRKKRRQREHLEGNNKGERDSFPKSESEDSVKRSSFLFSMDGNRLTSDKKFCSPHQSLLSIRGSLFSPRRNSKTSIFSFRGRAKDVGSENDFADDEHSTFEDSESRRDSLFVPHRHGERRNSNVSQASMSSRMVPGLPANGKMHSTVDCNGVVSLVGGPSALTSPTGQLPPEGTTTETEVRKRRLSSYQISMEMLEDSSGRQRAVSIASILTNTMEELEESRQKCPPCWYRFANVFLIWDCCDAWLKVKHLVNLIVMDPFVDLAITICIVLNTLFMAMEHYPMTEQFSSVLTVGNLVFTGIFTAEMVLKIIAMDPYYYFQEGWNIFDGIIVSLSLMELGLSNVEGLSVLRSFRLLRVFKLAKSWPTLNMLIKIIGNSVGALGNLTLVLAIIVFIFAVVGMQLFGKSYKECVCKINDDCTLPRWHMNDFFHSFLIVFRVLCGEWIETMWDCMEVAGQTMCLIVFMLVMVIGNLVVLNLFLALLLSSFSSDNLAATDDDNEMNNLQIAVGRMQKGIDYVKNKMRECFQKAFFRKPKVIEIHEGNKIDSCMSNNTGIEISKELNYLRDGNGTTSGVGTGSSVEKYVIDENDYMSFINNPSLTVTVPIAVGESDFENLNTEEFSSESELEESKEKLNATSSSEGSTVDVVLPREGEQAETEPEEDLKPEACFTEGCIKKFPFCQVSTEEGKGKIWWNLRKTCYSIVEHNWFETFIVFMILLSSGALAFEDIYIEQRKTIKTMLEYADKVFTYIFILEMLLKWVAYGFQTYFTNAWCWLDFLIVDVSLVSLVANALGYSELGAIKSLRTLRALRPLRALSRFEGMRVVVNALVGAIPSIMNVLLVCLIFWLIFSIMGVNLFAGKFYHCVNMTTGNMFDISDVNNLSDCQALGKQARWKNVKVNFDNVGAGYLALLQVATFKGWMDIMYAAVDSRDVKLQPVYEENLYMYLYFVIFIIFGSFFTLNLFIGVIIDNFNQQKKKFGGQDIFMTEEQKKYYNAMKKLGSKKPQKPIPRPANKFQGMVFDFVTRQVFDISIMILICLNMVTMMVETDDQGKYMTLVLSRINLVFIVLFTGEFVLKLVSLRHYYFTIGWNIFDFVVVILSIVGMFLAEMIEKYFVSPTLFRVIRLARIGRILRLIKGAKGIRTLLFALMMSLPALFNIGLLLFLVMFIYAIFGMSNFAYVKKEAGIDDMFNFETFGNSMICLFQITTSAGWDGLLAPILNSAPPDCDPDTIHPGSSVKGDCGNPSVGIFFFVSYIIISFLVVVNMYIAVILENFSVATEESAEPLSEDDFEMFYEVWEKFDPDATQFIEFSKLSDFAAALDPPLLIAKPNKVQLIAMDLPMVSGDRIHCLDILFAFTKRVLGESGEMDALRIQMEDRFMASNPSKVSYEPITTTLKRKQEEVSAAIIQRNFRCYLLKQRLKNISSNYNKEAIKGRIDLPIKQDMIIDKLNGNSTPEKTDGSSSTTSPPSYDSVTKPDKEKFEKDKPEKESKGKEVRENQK

Compound	inhibition at 3 µM (3 μM compound)	inhibition at 10 µM (10 μM compound)	SCN3A % INHIB HTS IWQ 3 μM (3 μM compound)	SCN3A % INHIB HTS IWQ 10 μM (10 μM compound)
Cc1cccc(CNC(=O)c2ccc(S(=O)(=O)Nc3nccs3)cc2)c1C [Example 82, N-(2,3-dimethylbenzyl)-4-[(1,3-thiazol-2-ylamino)sulfonyl]benzamide]	29.7%	63%		
O=C(c1ccc(S(=O)(=O)Nc2nccs2)cc1)N1CCC(Cc2ccccc2)C1 (stereo not drawn) [Example 282, 4-[(3-Benzylpyrrolidin-1-yl)carbonyl]-N-1,3-thiazol-2-yl-benzenesulfonamide]	29.1%	11.4%		
O=C(NCc1c(F)cccc1C(F)(F)F)c1ccc(S(=O)(=O)Nc2nccs2)cc1 [Example 84, N-[2-fluoro-6-(trifluoromethyl)benzyl]-4-[(1,3-thiazol-2-ylamino)sulfonyl]benzamide]	17.7%	22.2%		
CCC(NC(=O)c1ccc(S(=O)(=O)Nc2nccs2)cc1)c1ccc(F)cc1 (stereo not drawn) [Example 142, N-[1-(4-fluorophenyl)propyl]-4-[(1,3-thiazol-2-ylamino)sulfonyl]benzamide]	30.4%	31.5%		
O=C(NCc1cccc(OC(F)(F)F)c1)c1ccc(S(=O)(=O)Nc2nccs2)c(Cl)c1 [Example 285, 3-Chloro-4-[(1,3-thiazol-2-ylamino)sulfonyl]-N-[3-(trifluoromethoxy)benzyl]benzamide]	15.1%	39.1%		
COc1cccc(C2(NC(=O)c3ccc(S(=O)(=O)Nc4nccs4)cc3)CC2)c1 [Example 164, N-[1-(3-methoxyphenyl)cyclopropyl]-4-[(1,3-thiazol-2-ylamino)sulfonyl]benzamide]	16.6%	24.1%		
Cc1cc(C)nc(CC2CCCCCN2C(=O)c2ccc(S(=O)(=O)Nc3nccs3)cc2)c1 (stereo not drawn) [Example 246, 4-({2-[(4,6-Dimethylpyridin-2-yl)methyl]azepan-1-yl}carbonyl)-N-1,3-thiazol-2-yl-benzenesulfonamide]	-0.31%	-1.47%		
Cc1ccnc(NC(=O)c2ccc(S(=O)(=O)Nc3nccs3)cc2)c1 [Example 181, N-(4-methylpyridin-2-yl)-4-[(1,3-thiazol-2-ylamino)sulfonyl]benzamide]	-12.2%	11.2%		
Cc1cccc(CC2CCCCN2C(=O)c2ccc(S(=O)(=O)Nc3nccs3)cc2)n1 (stereo not drawn) [Example 242]			13.78%	8.48%
Cc1ccc(CNC(=O)c2ccc(S(=O)(=O)Nc3nccs3)cc2)cc1 [Example 98, N-(4-methylbenzyl)-4-[(1,3-thiazol-2-ylamino)sulfonyl]benzamide]	28.1%	36.6%		
CCOc1ccccc1CNC(=O)c1ccc(S(=O)(=O)Nc2nccs2)cc1 [Example 89, N-(2-ethoxybenzyl)-4-[(1,3-thiazol-2-ylamino)sulfonyl]benzamide]	14%	48.2%		
O=C(NCCOc1ccccc1F)c1ccc(S(=O)(=O)Nc2nccs2)cc1 [Example 167, N-[2-(2-fluorophenoxy)ethyl]-4-[(1,3-thiazol-2-ylamino)sulfonyl]benzamide]	30.8%	43%		
CCN(C(=O)c1ccc(S(=O)(=O)Nc2nccs2)cc1)[C@H](CO)c1ccccc1 [Example 219, N-ethyl-N-[(1S)-2-hydroxy-1-phenylethyl]-4-[(1,3-thiazol-2-yl-amino)sulfonyl]benzamide]	13.1%	1.08%		
C[C@H]([C@@H](O)c1ccccc1)N(C)C(=O)c1ccc(S(=O)(=O)Nc2nccs2)cc1 [Example 241, N-[(1R,2S)-2-hydroxy-1-methyl-2-phenylethyl]-N-methyl-4-[(1,3-thiazol-2-ylamino)sulfonyl]benzamide]	21.7%	11.6%		
COc1cccc(CC2CCCN2C(=O)c2ccc(S(=O)(=O)Nc3nccs3)cc2)c1 (stereo not drawn) [Example 240, 4-{[2-(3-Methoxybenzyl)pyrrolidin-1-yl]carbonyl}-N-1,3-thiazol-2-yl-benzenesulfonamide]	14.4%	20.2%		
